A short description of the assay: SKN7 mediated toxicity in Saccharomyces cerevisiae, growth rescue counterscreen, dose confirmation (AID 624258).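 Also: growth read after three days of incubation at 30 °C; 0% = median of neutral control wells.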 The settings on record: S. cerevisiae SKN7-toxicity growth rescue, plate reader.

Activity calls are given as the source filed them. No rule for the calls is given here.

With `CCOC(=O)C1=C(C)NC(=O)C1CC(=O)O` (centres undefined), where the note is “at 19.5 µM (top of the series)”, the growth rescue activity is -16.2% (inactive). Consider `c1cnc2c(c1)ccc1cccnc12`, for which the growth rescue activity (at 19.5 µM (top of the series)) is -64% (inactive). Turning to `O=c1[nH]c2c(c(=O)[nH]1)OCN(Cc1ccccc1)C2`, the growth rescue activity (at 19.5 µM (top of the series)) is -23.4% (inactive). The same measure, in the same setting: next, `Oc1cccc2ccc(Nc3ccccn3)nc12`: 6.81% (inactive). On the same count and under the same terms, next, `Clc1ccc(-c2n[nH]c3c2CCC3)cc1Cl`: -54.5% (inactive). For `O=C(CSc1nccn(-c2cccc(F)c2)c1=O)Nc1ccc(Cl)cc1F`, under “at 19.5 µM (top of the series)”, the growth rescue activity was 26.9% (inactive). `Cc1ccc(O)c(-c2cc(-c3ccccc3C)[nH]n2)c1`: the growth rescue activity (at 19.5 µM (top of the series)) is -92.1% (inactive).

`COc1cccc(NC(=O)CN(C)C(=O)c2cccnc2Nc2cccc(C(F)(F)F)c2)c1`: for the setting “at 19.5 µM (top of the series)”, the growth rescue activity is -21.3% (inactive). On to `Cc1ccc(C)c(/C=C/C(=O)c2ccccc(=O)c2O)c1`, for which, under “at 19.5 µM (top of the series)”, the growth rescue activity was -77% (inactive). On to `O=[N+]([O-])c1ccc(S(=O)(=O)c2ccccc2)nc1`, for which the growth rescue activity (at 19.5 µM (top of the series)) is 10.3% (inactive).

With `CCOC(=O)c1ccc(N2C(=O)CC(N3CCC(O)(c4ccc(Cl)cc4)CC3)C2=O)cc1` (centres undefined), for the setting “at 19.5 µM (top of the series)”, the growth rescue activity was -16.1% (inactive). Turning to `CCCOc1ccc(CSCCNC(=S)Nc2ccccc2)cc1`, the growth rescue activity (at 19.5 µM (top of the series)) is 22% (inactive).

`CCOC(=O)c1cc2c(=Cc3ccc(N(C)C)cc3)c3ccccc3n2[n+]1C`: the growth rescue activity (at 6.8 µM (top of the series)) was -71.9% (inactive). With `CCc1ccc(OCc2n[nH]c(=S)n2Cc2ccccc2)cc1`, the growth rescue activity (at 19.5 µM (top of the series)) was -30.5% (inactive). On to `CCOC(=O)c1ccc(NC(=S)N(Cc2cccnc2)Cc2ccco2)cc1`, for which the growth rescue activity (at 19.5 µM (top of the series)) was -37.1% (inactive). The same measure, in the same setting: next, `Cn1cncc1C#Cc1c(-c2ccsc2)sc2ccccc12`: -77.3% (inactive); `Oc1c(C(Nc2ccccn2)c2cccnc2)cc(Cl)c2cccnc12` (centres undefined): -70.7% (inactive); `CC[n+]1c(/C=C/C=C/c2ccc(N(C)C)cc2)sc2ccccc21`: -38.5% (inactive). `O=C(NCc1ccccc1)c1ccc2nccnc2c1`: for the setting “at 19.5 µM (top of the series)”, the growth rescue activity was 17.6% (inactive).

`CCOc1cc([N+](=O)[O-])cc(/C=N/NC(=O)c2c(-c3ccccc3)noc2C)c1O`: for the setting “at 19.5 µM (top of the series)”, the growth rescue activity was 0.098% (inactive).

For the compound `Cc1ccoc1C(=O)Nc1cccc(Oc2ccccc2)c1`, the growth rescue activity (at 19.5 µM (top of the series)) was -88.5% (inactive). Consider `CCc1cc(-c2[nH]ncc2-c2ccc([N+](=O)[O-])cc2)c(O)cc1OC`, for which the growth rescue activity (at 19.5 µM (top of the series)) was -43.8% (inactive). With `Cc1ccc(-c2c3c(nc4sc(C(N)=O)c(N)c24)CCCC3)o1`, where the note is “at 19.5 µM (top of the series)”, the growth rescue activity was -35.3% (inactive). As for `Clc1ccccc1CN(Cc1ccco1)Cc1nnnn1C1CCCC1`, the growth rescue activity (at 19.5 µM (top of the series)) is -4.89% (inactive).

Take `O=C1OC(c2ccccc2)=NC12CC2c1ccc(Cl)cc1` (centres undefined): the growth rescue activity (at 19.5 µM (top of the series)) is -72.5% (inactive).

Take `S=c1[nH]nc(-c2ccco2)n1/N=C/c1ccc(Br)s1`: the growth rescue activity (at 19.5 µM (top of the series)) was 30.2% (inactive). Regarding `CCCc1c(C)nn(C(=O)/C(C#N)=N/Nc2ccccc2[N+](=O)[O-])c1C`, the growth rescue activity (at 19.5 µM (top of the series)) was -8.75% (inactive). On to `Cc1cc(Nc2ccccc2)nn1C(=O)c1ccccc1`, for which the growth rescue activity (at 19.5 µM (top of the series)) was 7.09% (inactive).

For `C=CCn1c(-c2cc(-c3ccc(C)cc3)nc3ccccc23)n[nH]c1=S`, the growth rescue activity (at 19.5 µM (top of the series)) is 0.203% (inactive). Regarding `CCC(NC(=S)NCc1ccc(F)cc1)c1ccc(C(C)C)cc1` (centres undefined), for the setting “at 19.5 µM (top of the series)”, the growth rescue activity is 41.2% (inactive). Take `C[C@@]12CCC3[C@@](CCC4[C@@]3(C)CCC[C@@]4(C)C(=O)NCc3ccccc3)(CC1=O)C2` (some centres undefined): the growth rescue activity (at 19.5 µM (top of the series)) was -51.4% (inactive). Still for that read-out and setting: next, `O=C(CSc1ccc(-c2ccccn2)nn1)NCc1ccc(F)cc1`: 1.05% (inactive). Same read-out and setting: the result for `Oc1ccccc1-c1cc(-c2ccc3c(c2)OCCO3)n[nH]1` reads 2.6% (inactive).

For `O=C(N/N=C/c1cc(Cl)cc([N+](=O)[O-])c1O)c1ccccc1NS(=O)(=O)c1cccs1`, for the setting “at 19.5 µM (top of the series)”, the growth rescue activity is -5.73% (inactive). Regarding `CCCCc1ccc(-n2c(Cc3cccs3)n[nH]c2=S)cc1`, the growth rescue activity (at 19.5 µM (top of the series)) is -23.9% (inactive). On to `O=C(CC1(O)C(=O)Nc2cc(Cl)cc(Cl)c21)c1ccncc1` (centres undefined), for which the growth rescue activity (at 19.5 µM (top of the series)) is -23.3% (inactive). Regarding `O=C(c1cc([N+](=O)[O-])cc([N+](=O)[O-])c1)N(Cc1nnc(-c2ccccc2Cl)o1)C1CC1`, the growth rescue activity (at 6.8 µM (top of the series)) is -38% (inactive).

As to `CCCCCC1CCC(c2n[nH]c(=S)n2C)CC1` (centres undefined), the growth rescue activity (at 19.5 µM (top of the series)) was -58.3% (inactive).

On to `Cc1cccc(Nc2nc(-c3ccccn3)cs2)n1`, for which the growth rescue activity (at 19.5 µM (top of the series)) is -59.7% (inactive). `CCn1nc(/C=C/c2ccccc2)nc2c(=O)n(C)c(=O)nc1-2`: under “at 19.5 µM (top of the series)”, the growth rescue activity is -44.4% (inactive). On the same count and under the same terms, next, `O=C(COC(=O)c1ccc([N+](=O)[O-])o1)NC12CC3CC(CC(C3)C1)C2`: -18.4% (inactive); `CCCCNC(=S)N/N=C1\CCCCc2ccccc21`: -53.8% (inactive); `S=C(NCc1ccco1)Nc1ccc(Oc2ccc(Cl)cc2)cc1`: 26.1% (inactive). Regarding `Cc1c(C2(O)CCCCC2)[nH]c2ccc(C(F)(F)F)cc12`, the growth rescue activity (at 19.5 µM (top of the series)) is -43.8% (inactive). With `O=S(=O)(c1ccc(Cl)cc1)N1CCC2(CC1)OCCN2S(=O)(=O)c1cccs1`, the growth rescue activity (at 19.5 µM (top of the series)) is -46.5% (inactive).

As for `O=C(CN1CC[n+]2c(-c3cccs3)csc21)c1ccc(-c2ccccc2)cc1`, under “at 19.5 µM (top of the series)”, the growth rescue activity was -63.4% (inactive). On the same count and under the same terms, next, `CC1(C)CC(=O)C(N=Nc2ccc3ncsc3c2)=C(O)C1`: 0.603% (inactive); `O=C1c2cc(F)ccc2-n2c1nc1ccccc1c2=O`: -16.1% (inactive); `CCOC(=O)C1CCCN(C(=O)c2cc(-c3ccc(C)cc3)nc3ccccc23)C1` (centres undefined): 25.9% (inactive). Take `COc1cccc2c1C(=O)c1c(O)c3c(c(O)c1C2=O)CC(O)(C(C)=NNC(=O)c1ccc(Cl)c(Cl)c1)CC3OC1CC(N)C(O)C(C)O1` (centres undefined): the growth rescue activity (at 19.5 µM (top of the series)) was 23.8% (inactive). Take `CCC(CC)C(=O)N1CCN(c2cccc(C)c2C)CC1`: the growth rescue activity (at 19.5 µM (top of the series)) was -12.1% (inactive). On the same count and under the same terms, the result for `Nc1nc2sc3c(c2c(=O)s1)CCCC3` reads -93.9% (inactive).

On to `CCCCOC(=O)/C=C/c1ccc(OC(=O)OC)c(OC(=O)OC)c1`, for which the growth rescue activity (at 19.5 µM (top of the series)) is -13.9% (inactive).

As for `COc1ccccc1N1CCN(C(=O)CCNS(=O)(=O)c2ccc(Br)s2)CC1`, the growth rescue activity (at 19.5 µM (top of the series)) was 9.41% (inactive). For the compound `O=C(Nc1nc(-c2ccccn2)cs1)c1ccc(Br)s1`, the growth rescue activity (at 19.5 µM (top of the series)) is -44.2% (inactive). The same measure, in the same setting: the result for `O=C(Nc1nnc(-c2cccs2)o1)c1cccc(Oc2ccccc2)c1` reads -6.4% (inactive). Consider `O=S(=O)(Nc1ccccc1)c1ccc(Oc2ncc(C(F)(F)F)cc2Cl)cc1`, for which, where the note is “at 2.1 µM (top of the series)”, the growth rescue activity was -15.3% (inactive). Turning to `COC(=O)Cc1cc(=O)n(-c2ccccc2)[nH]1`, the growth rescue activity (at 19.5 µM (top of the series)) is 9.07% (inactive). Same read-out and setting: the result for `CC(C)CSc1n[nH]c(=S)s1` reads -51% (inactive); that for `O=C(c1ccccc1)c1coc2c1C(=O)c1ccccc1C2=O`, 18.2% (inactive). Take `O=C(COc1ccccc1F)Nc1nc(-c2ccccn2)cs1`: the growth rescue activity (at 19.5 µM (top of the series)) was -57.2% (inactive). Consider `N#Cc1cc2c(nc1SCc1ccccc1)CCCC2=O`, for which the growth rescue activity (at 19.5 µM (top of the series)) was -24.7% (inactive).

As for `CC(=O)N1CC[n+]2c(-c3ccc(Cl)cc3)csc21`, the growth rescue activity (at 19.5 µM (top of the series)) was -24.8% (inactive). The same measure, in the same setting: the result for `CC(=O)Oc1ccc(OC(C)=O)c(SCCCCCCl)c1` reads -46.3% (inactive); that for `O=S(=O)(Nc1ccc(-n2cccc2)cc1)c1ccc(Cl)c(Cl)c1`, -92.1% (inactive); that for `CC12CC3(C)CC(C)(C1)CC(NC(=O)N1CCCC1)(C2)C3`, -73.5% (inactive). In the case of `COc1cc(/C=N/O)cc(Br)c1OCc1cccc(Cl)c1`, the growth rescue activity (at 19.5 µM (top of the series)) is -82% (inactive).

Turning to `COc1cccc(/C=N/Nc2ncnc3scc(-c4ccccc4)c23)c1O`, the growth rescue activity (at 19.5 µM (top of the series)) was -79.1% (inactive). For `CC(C)CNC(=O)COC(=O)c1ccc([N+](=O)[O-])cc1Cl`, the growth rescue activity (at 19.5 µM (top of the series)) was 3.79% (inactive). The same measure, in the same setting: the result for `Cc1ccc(Cl)cc1NC1=C/C(=N\S(=O)(=O)c2cccs2)c2ccccc2C1=O` reads -24.9% (inactive); that for `c1ccc(Nc2nc(-c3ccccn3)cs2)cc1`, -0.973% (inactive); that for `O=C(N/N=C/c1cc(Br)cc(Cl)c1O)c1ccc2c(c1)OCO2`, -36.6% (inactive).

In the case of `CC1Oc2ccccc2C=C1/C=N/Nc1ccc(C(=O)O)cc1` (centres undefined), the growth rescue activity (at 19.5 µM (top of the series)) is -32.7% (inactive). As for `Cn1nc(C(F)(F)F)c(C#N)c1N1CCN(c2ccc(F)cc2)CC1`, for the setting “at 19.5 µM (top of the series)”, the growth rescue activity is -49.6% (inactive).

Turning to `O=S(=O)(Nc1cc(Sc2ncn[nH]2)c(O)c2ccccc12)c1ccccc1`, the growth rescue activity (at 19.5 µM (top of the series)) is -4.91% (inactive). Regarding `O=C(NCCC(=O)N1CCN(c2ccccc2O)CC1)c1ccc(Br)cc1`, the growth rescue activity (at 19.5 µM (top of the series)) was -9.2% (inactive). Turning to `Cc1cccc(C)c1N1C(=O)C2ON(c3ccccc3)C(c3ccncc3)C2C1=O` (centres undefined), the growth rescue activity (at 19.5 µM (top of the series)) was -56.4% (inactive). For `Cn1c(CNc2ccccc2O)nc2ccccc21`, for the setting “at 19.5 µM (top of the series)”, the growth rescue activity is -50% (inactive). As for `CN(C)S(=O)(=O)Oc1cccc(C(=O)Nc2ccc(Cl)cc2)c1`, the growth rescue activity (at 19.5 µM (top of the series)) was -19.4% (inactive).

In the case of `O=c1cc(CSc2ccc(Cl)cc2)nc(-c2ccccn2)[nH]1`, the growth rescue activity (at 19.5 µM (top of the series)) is -48.1% (inactive). Regarding `Cc1ccc(C(=O)C(SC(C)(C)C)n2cncn2)cc1` (centres undefined), the growth rescue activity (at 6.8 µM (top of the series)) was 27.6% (inactive).

With `CCc1c(C2(O)CCCCC2)[nH]c2ccc(C(F)(F)F)cc12`, the growth rescue activity (at 6.8 µM (top of the series)) was 85.9% (inactive).

For `O=c1c2ccccc2nc(-c2cccc(Cl)c2)n1O`, where the note is “at 19.5 µM (top of the series)”, the growth rescue activity was -66% (inactive). For the compound `N#Cc1c(-c2ccccc2)nc2n(c1=O)CCS2`, the growth rescue activity (at 19.5 µM (top of the series)) was 27.6% (inactive).

The record behind these values is PubChem BioAssay AID624258 (Broad Institute, 2012).
